Source: ChEMBL document CHEMBL1130500 (Bioorg Med Chem Lett, 1997)

biological target: T1, Cholecystokinin receptor type A (Rattus norvegicus) (UniProt P30551); details: 10 uM
T1 sequence (whole entry): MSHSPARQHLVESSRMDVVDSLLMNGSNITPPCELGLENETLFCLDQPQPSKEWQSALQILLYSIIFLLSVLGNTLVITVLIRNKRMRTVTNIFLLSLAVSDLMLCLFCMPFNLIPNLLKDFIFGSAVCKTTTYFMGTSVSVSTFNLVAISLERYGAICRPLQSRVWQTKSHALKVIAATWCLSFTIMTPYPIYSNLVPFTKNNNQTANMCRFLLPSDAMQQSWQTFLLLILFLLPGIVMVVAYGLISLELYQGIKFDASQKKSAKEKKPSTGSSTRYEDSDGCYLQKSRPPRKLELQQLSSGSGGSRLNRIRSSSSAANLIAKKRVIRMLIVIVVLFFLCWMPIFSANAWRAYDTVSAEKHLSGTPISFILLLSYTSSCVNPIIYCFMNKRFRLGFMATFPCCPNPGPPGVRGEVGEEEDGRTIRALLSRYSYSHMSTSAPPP

Row | Structure (SMILES) | inhibition [%]
1 | Cc1noc(C)c1-c1nc(CC(C)(NC(=O)OC2C3CC4CC(C3)CC2C4)C(=O)NCCc2ccccc2)no1 (centres undefined) | 20
2 | O=C(NC1(C(=O)NCCc2ccccc2)Cc2ccccc2C1)OC1C2CC3CC(C2)CC1C3 (centres undefined) | 22

biological target: T2, Gastrin/cholecystokinin type B receptor (Mus musculus) (UniProt P56481); format: tissue-based; details: Cerebral cortex; 10 uM
T2 sequence (whole entry): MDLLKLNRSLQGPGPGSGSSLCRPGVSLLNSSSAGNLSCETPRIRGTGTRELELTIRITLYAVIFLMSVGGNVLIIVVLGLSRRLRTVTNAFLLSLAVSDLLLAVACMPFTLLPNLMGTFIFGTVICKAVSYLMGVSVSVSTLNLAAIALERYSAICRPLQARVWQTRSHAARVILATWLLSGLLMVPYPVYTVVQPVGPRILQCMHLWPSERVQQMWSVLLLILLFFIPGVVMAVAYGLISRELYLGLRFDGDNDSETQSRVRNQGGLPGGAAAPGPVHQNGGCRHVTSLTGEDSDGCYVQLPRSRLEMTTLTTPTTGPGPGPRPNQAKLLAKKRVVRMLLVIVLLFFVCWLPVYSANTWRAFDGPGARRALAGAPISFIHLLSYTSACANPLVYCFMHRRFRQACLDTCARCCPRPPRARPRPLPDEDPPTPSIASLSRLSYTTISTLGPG

Row | Structure (SMILES) | inhibition [%]
3 | Cc1noc(C)c1-c1nc(CC(C)(NC(=O)OC2C3CC4CC(C3)CC2C4)C(=O)NCCc2ccccc2)no1 (centres undefined) | 28

biological target: T3, Cholecystokinin receptor type A (Rattus norvegicus, UniProt P30551); details: not given
T3 sequence (P30551 whole entry): T1 sequence (whole entry)

Row | Structure (SMILES) | IC50 [nM]
4 | O=C(O)CCC(=O)N[C@@H](CNC(=O)C1(NC(=O)OC2C3CC4CC(C3)CC2C4)Cc2ccccc2C1)c1ccccc1 (some centres undefined) | 1350
5 | O=C(NC1(C(=O)NCCc2ccccc2)CC2(Cc3cccc4cccc(c34)C2)C1)OC1C2CC3CC(C2)CC1C3 (centres undefined) | 7220
6 | CC(Cc1ccc2c(c1)C(C)(C)CCC2(C)C)(NC(=O)OC1C2CC3CC(C2)CC1C3)C(=O)NCCc1ccccc1 (centres undefined) | 19800
7 | C[C@@](Cc1c[nH]c2ccccc12)(NC(=O)OC1C2CC3CC(C2)CC1C3)C(=O)N[C@H](CO)[C@H](O)c1ccccc1 (some centres undefined) | 681
8 | Cc1noc(C)c1CC(C)(NC(=O)OC1C2CC3CC(C2)CC1C3)C(=O)NCCc1ccccc1 (centres undefined) | 6940
9 | C[C@](Cc1c[nH]c2ccc(F)cc12)(NC(=O)OC1C2CC3CC(C2)CC1C3)C(=O)NC[C@H](NC(=O)CCC(=O)O)c1ccccc1 (some centres undefined) | 2860
10 | CC(Cc1c[nH]c2ccc(F)cc12)(NC(=O)OC1C2CC3CC(C2)CC1C3)C(=O)NC[C@H](NC(=O)CCC(=O)O)c1ccccc1 (some centres undefined) | 2180
11 | CC(=O)Nc1nc(CC(C)(NC(=O)OC2C3CC4CC(C3)CC2C4)C(=O)NCCc2ccccc2)cs1 (centres undefined) | 5350
12 | O=C(O)CCC(=O)N[C@@H](CNC(=O)C(Cc1c[nH]c2ccc(F)cc12)NC(=O)OC1C2CC3CC(C2)CC1C3)c1ccccc1 (some centres undefined) | 1910
13 | O=C(CCC(=O)OCc1ccccc1)N[C@@H](CNC(=O)C(Cc1c[nH]c2ccc(F)cc12)NC(=O)OC1C2CC3CC(C2)CC1C3)c1ccccc1 (some centres undefined) | 583
14 | CC(Cc1c[nH]c2ccc(F)cc12)(NC(=O)OC1C2CC3CC(C2)CC1C3)C(=O)NC[C@H](NC(=O)CCC(=O)OCc1ccccc1)c1ccccc1 (some centres undefined) | 2650
15 | CC(Cc1ccc(Oc2ccccc2)cc1)(NC(=O)OC1C2CC3CC(C2)CC1C3)C(=O)N[C@H](CO)[C@H](O)c1ccccc1 (some centres undefined) | 616
16 | CN(C)C(=O)c1oc2ccccc2c1CC(C)(NC(=O)OC1C2CC3CC(C2)CC1C3)C(=O)NCCc1ccccc1 (centres undefined) | 65

biological target: T1, Cholecystokinin receptor type A (Rattus norvegicus); details: 1 uM

Row | Structure (SMILES) | inhibition [%]
17 | COc1ccc(CC(C)(NC(=O)OC2C3CC4CC(C3)CC2C4)C(=O)N[C@H](CO)[C@H](O)c2ccccc2)cc1 (some centres undefined) | 43

biological target: T2, Gastrin/cholecystokinin type B receptor (Mus musculus); format: tissue-based; details: Cerebral cortex; 1 uM

Row | Structure (SMILES) | inhibition [%]
18 | CC(CCCN1C(=O)c2ccccc2C1=O)(NC(=O)OC1C2CC3CC(C2)CC1C3)C(=O)NCCc1ccccc1 (centres undefined) | 8
19 | CC(CCCN)(NC(=O)OC1C2CC3CC(C2)CC1C3)C(=O)NCCc1ccccc1 (centres undefined) | 3
